Where two headings read alike, the source gives them in different places.
Experiments:
HFD SD rat model = assay: HFD SD rat model, biochemical, organ weight ratio, liver lipid and liver pathology; format: in vivo
Protocol: SD rat study: 58 SD rats ♂ aged 5–6 weeks were purchased from Beijing Huafukang Biotechnology Co., Ltd. 9 animals were kept with a food control diet as normal control, and the other 49 animals were fed 40% fat, 1.25% cholesterol and 0.5% sodium cholate (HFD, D12109C, SYSE BIO, Changzhou, China) as a model group. […] Animals in the normal and model groups were given solvent by oral gavage. All drugs, including solvent, were administered consecutively for 4 weeks and once a day. After sacrifice, blood was collected and serum was isolated for the AST, ALT, TG, TC, LDL-c, and HDL-c test, and livers and hearts were weighed to calculate the liver weight ratio and the heart weight ratio, respectively. The right lobe of the liver of each rat was harvested for the TG and TC test (A110-1-1 and A111-1-1, Nanjing Jiancheng Institute of Bioengineering, Nanjing, China) according to the manufacturer's instructions. The left lobe of the liver was collected for hematoxylin-eosin staining (H and E staining) to quantify liver steatosis, inflammation, and ballooning.
(§1) The liver samples were fixed in 10% formalin and embedded in paraffin using standard methods. The 4 μm paraffin sections were then assessed for liver histology by H and E staining and liver fibrosis by sirius red staining. The stained sections were panoramic scanned with a NanoZoomer Digital Pathology scanner (S210, Hamamatsu, Japan), and then observed with different visual fields at different magnifications, and scored for different liver lobes in the sections. The total NAS score represents the sum of the scores for steatosis (0–3), lobular inflammation (0–3), and ballooning (0–2), and ranges from 0–8 [30]. VIS7.0 software was used to analyze the area of liver fibrosis in the panoramic scanning SR staining sections, and the percentage of liver fibrosis area in the whole section area was calculated.

[1] = Observation of diarrhea in treated animals; format: in vivo, rodents; conditions: animal studies
HFD-CHOL hamster model = assay: HFD-CHOL hamster model, serum biochemical test; format: in vivo, golden hamster; conditions: 10 mg/kg (CS27109-M, MGL-3196) oral once a day 4 weeks, mean ± SD
Protocol: Hamster study: 58 golden hamsters ♂ aged 6–8 weeks were purchased from Beijing Vital River Laboratory Animal Technology Co., Ltd. 10 animals were kept with a diet of food control as normal control, and the other 48 animals were fed 40% fat and 1.25% cholesterol (HFD-CHOL, D12108C, Research diet) as a model group. […] Animals in the normal and model group were given solvent by oral gavage. All drugs, including solvent, were administered consecutively for 4 weeks and once a day. After sacrifice, blood was collected and serum was isolated for the AST, ALT, TG, TC, LDL-c, and HDL-c test.

[2] = Tissue distribution in SD rat; format: in vivo; conditions: for concentration at 2 h / concentration at 8 h: male, 10 mg/kg oral gavage once
Excerpt: [Worded in the source for another organism; this organism is reported under the same test.] Half of mice for each group (n = 3) were sacrificed 2H and 8H after drug administration, respectively. Blood, heart, and liver were collected at each time point. Blood was processed and detected as mentioned previously. The heart and liver were homogenized and added extractant. The protein of tissue samples was precipitated by vortex oscillation, and the supernatant was collected and determined by LC-MS/MS procedures.

WD + CCL4 mouse model = assay: WD + CCL4 mouse model, biochemical, liver weight ratio and liver pathology; format: in vivo, C57/B6 mouse
Protocol: C57/B6 mouse study: 61 C57/B6 mice ♂ aged 6–7 weeks were purchased from Beijing Vital River Laboratory Animal Technology Co., Ltd. Six animals were kept with a chow diet as normal control, and the other 55 animals were fed 60% fat diet (Western diet, D12492, Research diet) as the model group. […] Animals in the normal and model groups were given solvent by oral gavage. All drugs, including solvent, were administered consecutively for 4 weeks and once a day. After sacrifice, blood was collected and serum was isolated for the AST, ALT, TG, TC, LDL-c, HDL-c, and CK tests, and the livers were weighed to calculate the liver weight ratio. The left lobe of the liver of each mouse was collected for hematoxylin-eosin staining (H and E staining) and sirius red staining.
as §1

PK in the rat = format: in vivo, SD rat; conditions: 10 mg/kg oral gavage once
[3] = heart, read-out: Heart concentration
[4] = liver, read-out: Liver concentration
[5] = serum, read-out: Serum concentration
[6] = WD + CCL4 mouse, 4 weeks, MGL3196 10 mg/kg, CS27109 high-dose (30 mg/kg), vs model

CC(C)c1cc(Oc2c(Cl)cc(-n3nc(C#N)c(=O)[nH]c3=O)cc2Cl)n[nH]c1=O [MGL3196, 2-[3,5-dichloro-4-(5-isopropyl-6-oxo-1,6-dihydropyridazin-3-yloxy)phenyl]-3,5-dio xo-2,3,4,5-tetrahydro[1,2,4]triazine-6-carbonitrile, reference compound]
Liver TC (HFD SD rat model; HFD SD rat liver, 15 mg/kg (CS27109-M, MGL-3196) oral once a day 4 weeks, mean ± SD, model 13 ± 2.2, normal 6.0 ± 0.76): 12 ± 1.7 µmol/g
Liver TG (HFD SD rat model; HFD SD rat liver, 15 mg/kg (CS27109-M, MGL-3196) oral once a day 4 weeks, mean ± SD, model 102 ± 36, normal 0.75 ± 12): 113 ± 38 µmol/g
TG (HFD SD rat model; HFD SD rat serum, 15 mg/kg (CS27109-M, MGL-3196) oral once a day 4 weeks, mean ± SD, model 0.82 ± 0.73, normal 0.53 ± 0.34): 0.11 ± 0.03^∗∗∗ mmol/L
HDL-c (HFD SD rat model; HFD SD rat serum, 15 mg/kg (CS27109-M, MGL-3196) oral once a day 4 weeks, mean ± SD, model 1.2 ± 0.44, normal 1.1 ± 0.13): 0.94 ± 0.26 mmol/L
LDL-c (HFD SD rat model; HFD SD rat serum, 15 mg/kg (CS27109-M, MGL-3196) oral once a day 4 weeks, mean ± SD, model 9.7 ± 6.1, normal 0.28 ± 0.06): 1.1 ± 0.65 mmol/L
TC (HFD SD rat model; HFD SD rat serum, 15 mg/kg (CS27109-M, MGL-3196) oral once a day 4 weeks, mean ± SD, model 20 ± 13, normal 1.5 ± 0.20): 3.3 ± 1.3 mmol/L
ALT (HFD SD rat model; HFD SD rat serum, 15 mg/kg (CS27109-M, MGL-3196) oral once a day 4 weeks, mean ± SD, model 166 ± 95, normal 32 ± 6.8): 74 ± 24 U/L
AST (HFD SD rat model; HFD SD rat serum, 15 mg/kg (CS27109-M, MGL-3196) oral once a day 4 weeks, mean ± SD, model 365 ± 212, normal 103 ± 21): 185 ± 66 U/L
NAS score (HFD SD rat model; HFD SD rat, 4 weeks, 15 mg/kg, vs model): tendency to reduce the NAS score, but without significance
liver steatosis score (H and E) (HFD SD rat model; HFD SD rat, 4 weeks, CS27109 5-45 mg/kg dose-dependent, MGL3196 15 mg/kg, vs model): lessened steatosis
diarrhea in treated animals [1]: exhibit diarrhea
HDL-c (HFD-CHOL hamster model; model 3.6 ± 1.1, normal 1.6 ± 0.45): 2.9 ± 0.36 mmol/L
LDL-c (HFD-CHOL hamster model; model 17 ± 6.1, normal 1.3 ± 0.54): 8.6 ± 3.3 mmol/L
TG (HFD-CHOL hamster model; model 26 ± 24, normal 2.1 ± 1.1): 5.9 ± 5.6 mmol/L
TC (HFD-CHOL hamster model; model 37 ± 13, normal 3.1 ± 0.72): 18 ± 6.3 mmol/L
ALT (HFD-CHOL hamster model; model 278 ± 174, normal 94 ± 58): 206 ± 47 U/L
AST (HFD-CHOL hamster model; model 638 ± 323, normal 98 ± 45): 752 ± 261 U/L
average of concentration liver/heart ([2]; 10 mg/kg oral, average of 2H and 8H): 22.325
concentration at 2 h [2, 3]: 156 ng/g
concentration at 8 h [2, 3]: 128 ng/g
concentration at 2 h [2, 4]: 3850 ng/g
concentration at 8 h [2, 4]: 2550 ng/g
concentration at 2 h [2, 5]: 1400 ng/mL
concentration at 8 h [2, 5]: 506 ng/mL
LDL-c (WD + CCL4 mouse model; WD + CCL4 mouse serum, 10 mg/kg (CS27109-M, MGL-3196) oral once a day 4 weeks, mean ± SD, model 1.1 ± 0.35, normal 0.43 ± 0.04): 0.33 ± 0.05 mmol/L
TG (WD + CCL4 mouse model; WD + CCL4 mouse serum, 10 mg/kg (CS27109-M, MGL-3196) oral once a day 4 weeks, mean ± SD, model 1.2 ± 0.34, normal 0.91 ± 0.14): 1.0 ± 0.23 mmol/L
HDL-c (WD + CCL4 mouse model; WD + CCL4 mouse serum, 10 mg/kg (CS27109-M, MGL-3196) oral once a day 4 weeks, mean ± SD, model 1.5 ± 0.25, normal 2.0 ± 0.08): 1.2 ± 0.13 mmol/L
TC (WD + CCL4 mouse model; WD + CCL4 mouse serum, 10 mg/kg (CS27109-M, MGL-3196) oral once a day 4 weeks, mean ± SD, model 4.1 ± 0.97, normal 3.0 ± 0.10): 1.9 ± 0.17 mmol/L
CK activity (WD + CCL4 mouse model; WD + CCL4 mouse serum, 10 mg/kg (CS27109-M, MGL-3196) oral once a day 4 weeks, mean ± SD, model 345 ± 268, normal 334 ± 193): 197 ± 129 U/L
AST (WD + CCL4 mouse model; WD + CCL4 mouse serum, 10 mg/kg (CS27109-M, MGL-3196) oral once a day 4 weeks, mean ± SD, model 10245 ± 4955, normal 116 ± 71): 2178 ± 769 U/L
ALT (WD + CCL4 mouse model; WD + CCL4 mouse serum, 10 mg/kg (CS27109-M, MGL-3196) oral once a day 4 weeks, mean ± SD, model 14003 ± 4205, normal 54 ± 15): 4658 ± 1639 U/L
liver inflammation score (H and E) (WD + CCL4 mouse model; [6]): notable reduction
liver steatosis score (H and E) (WD + CCL4 mouse model; [6]): notable reduction
area of liver fibrosis (sirius red) (WD + CCL4 mouse model; WD + CCL4 mouse, 4 weeks, three doses of CS27109 (3, 10, 30 mg/kg), MGL3196 10 mg/kg, vs model): prominently reduced the area of the fibrosis
PK properties in rat (compared with CS27109) (PK in the rat): slightly higher PK properties

From article PMC9943626, “CS27109, A Selective Thyroid Hormone Receptor-β Agonist Alleviates Metabolic-Associated Fatty Liver Disease in Murine Models” (International Journal of Endocrinology, 2023)
